Results: PubChem BioAssay (NCI)
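The compound was tested at five concentrations on cells cultured in 96-well plates, with a 48-hour exposure period. At the TGI there is no net growth.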

Experiments:
Assay in all cases: NCI tumour cell line growth inhibition, 48 h
A498 renal = system: A498 renal
A549 NSCLC = system: A549 NSCLC
CAKI-1 renal = system: CAKI-1 renal
CCRF-CEM leukemia = system: CCRF-CEM leukemia
COLO 205 colon = system: COLO 205 colon
DLD-1 colon = system: DLD-1 colon
DMS 114 small cell lung = system: DMS 114 small cell lung
DMS 273 small cell lung = system: DMS 273 small cell lung
EKVX NSCLC = system: EKVX NSCLC
HCC-2998 colon = system: HCC-2998 colon
HCT-116 colon = system: HCT-116 colon
HCT-15 colon = system: HCT-15 colon
HL-60(TB) leukemia = system: HL-60(TB) leukemia
HOP-18 NSCLC = system: HOP-18 NSCLC
HOP-62 NSCLC = system: HOP-62 NSCLC
HT29 colon = system: HT29 colon
IGROV1 ovarian = system: IGROV1 ovarian
K-562 leukemia = system: K-562 leukemia
KM12 colon = system: KM12 colon
KM20L2 colon = system: KM20L2 colon
LOX IMVI melanoma = system: LOX IMVI melanoma
MALME-3M melanoma = system: MALME-3M melanoma
MCF7 breast = system: MCF7 breast
MOLT-4 leukemia = system: MOLT-4 leukemia
NCI-H226 lung = system: NCI-H226 lung
NCI-H23 lung = system: NCI-H23 lung
NCI-H460 lung = system: NCI-H460 lung
NCI-H522 lung = system: NCI-H522 lung
NCI/ADR-RES ovarian = system: NCI/ADR-RES ovarian
OVCAR-3 ovarian = system: OVCAR-3 ovarian
OVCAR-4 ovarian = system: OVCAR-4 ovarian
OVCAR-5 ovarian = system: OVCAR-5 ovarian
OVCAR-8 ovarian = system: OVCAR-8 ovarian
P388 leukemia = system: P388 leukemia
P388/ADR leukemia = system: P388/ADR leukemia
RPMI-8226 leukemia = system: RPMI-8226 leukemia
RXF 393 renal = system: RXF 393 renal
SF-268 CNS = system: SF-268 CNS
SF-295 CNS = system: SF-295 CNS
SF-539 CNS = system: SF-539 CNS
SK-MEL-2 melanoma = system: SK-MEL-2 melanoma
SK-MEL-28 melanoma = system: SK-MEL-28 melanoma
SK-MEL-5 melanoma = system: SK-MEL-5 melanoma
SK-OV-3 ovarian = system: SK-OV-3 ovarian
SN12C renal = system: SN12C renal
SN12K1 renal = system: SN12K1 renal
SNB-19 CNS = system: SNB-19 CNS
SNB-75 CNS = system: SNB-75 CNS
SNB-78 CNS = system: SNB-78 CNS
SW-620 colon = system: SW-620 colon
U251 CNS = system: U251 CNS
UACC-257 melanoma = system: UACC-257 melanoma
UACC-62 melanoma = system: UACC-62 melanoma
UO-31 renal = system: UO-31 renal
XF 498 CNS = system: XF 498 CNS
HOP-92 NSCLC = system: HOP-92 NSCLC
M19-MEL melanoma = system: M19-MEL melanoma

Work on `CC(C)(C)c1ccc2c(c1)OP1(Oc3c(Cl)cc(Cl)c4cccnc34)(O2)Oc2ccc(C(C)(C)C)cc2O1` yielded a TGI (A498 renal) of 28.7 µM, a TGI (A549 NSCLC) of 34.6 µM and a TGI (CAKI-1 renal) of 9.58 µM. It also gave a TGI (CCRF-CEM leukemia) of over 100 µM, a TGI (COLO 205 colon) of 31.3 µM and a TGI (DLD-1 colon) of 18.1 µM. It also gave a TGI (DMS 114 small cell lung) of 9.57 µM, a TGI (DMS 273 small cell lung) of 18.3 µM and a TGI (EKVX NSCLC) of over 35.7 µM. The TGI (HCC-2998 colon) was 23.4 µM, the TGI (HCT-116 colon) was 17.4 µM and the TGI (HCT-15 colon) was 19.9 µM. The TGI (HL-60(TB) leukemia) was 10.1 µM, the TGI (HOP-18 NSCLC) was 32.4 µM and the TGI (HOP-62 NSCLC) was 20 µM. It also gave a TGI (HT29 colon) of 19.5 µM, a TGI (IGROV1 ovarian) of 25.7 µM and a TGI (K-562 leukemia) of over 31.6 µM. The TGI (KM12 colon) was 20.4 µM, the TGI (KM20L2 colon) was 14.6 µM and the TGI (LOX IMVI melanoma) was 19.2 µM. It also gave a TGI (MALME-3M melanoma) of 24.9 µM, a TGI (MCF7 breast) of 17.3 µM and a TGI (MOLT-4 leukemia) of 18.7 µM. The TGI (NCI-H226 lung) was 29.1 µM, the TGI (NCI-H23 lung) was 21.8 µM and the TGI (NCI-H460 lung) was 16.2 µM. The TGI (NCI-H522 lung) was 8.45 µM, the TGI (NCI/ADR-RES ovarian) was 24.6 µM and the TGI (OVCAR-3 ovarian) was 13.3 µM. It also gave a TGI (OVCAR-4 ovarian) of 23.3 µM, a TGI (OVCAR-5 ovarian) of 27.5 µM and a TGI (OVCAR-8 ovarian) of 45.8 µM. It also gave a TGI (P388 leukemia) of 2.61 µM, a TGI (P388/ADR leukemia) of 9.93 µM and a TGI (RPMI-8226 leukemia) of 19 µM. For the same compound, the TGI (RXF 393 renal) was 30 µM, the TGI (SF-268 CNS) was 24.7 µM and the TGI (SF-295 CNS) was 32.1 µM. For the same compound, the TGI (SF-539 CNS) was 21.2 µM, the TGI (SK-MEL-2 melanoma) was 22.8 µM and the TGI (SK-MEL-28 melanoma) was 28.4 µM. The TGI (SK-MEL-5 melanoma) was 22.1 µM, the TGI (SK-OV-3 ovarian) was 16.5 µM and the TGI (SN12C renal) was 30.8 µM. It also gave a TGI (SN12K1 renal) of 19.6 µM, a TGI (SNB-19 CNS) of 22.8 µM and a TGI (SNB-75 CNS) of 32.2 µM. The TGI (SNB-78 CNS) was over 86.8 µM, the TGI (SW-620 colon) was 23.5 µM and the TGI (U251 CNS) was 15.9 µM. The TGI (UACC-257 melanoma) was 14.2 µM, the TGI (UACC-62 melanoma) was 21.1 µM and the TGI (UO-31 renal) was 19.6 µM. The TGI (XF 498 CNS) was 26.7 µM.
In the case of `c1ccc2c3c(ccc2c1)-c1[nH]ncc1CCO3`, the TGI (A498 renal) is reported as 99.7 µM, the TGI (A549 NSCLC) is reported as over 100 µM and the TGI (CAKI-1 renal) is reported as over 64 µM. The TGI (CCRF-CEM leukemia) was over 100 µM, the TGI (COLO 205 colon) was 99.7 µM and the TGI (DLD-1 colon) was over 100 µM. For the same compound, the TGI (DMS 114 small cell lung) was over 82.4 µM, the TGI (DMS 273 small cell lung) was over 100 µM and the TGI (EKVX NSCLC) was 45 µM. The TGI (HCC-2998 colon) was over 100 µM, the TGI (HCT-116 colon) was over 88.5 µM and the TGI (HCT-15 colon) was over 100 µM. For the same compound, the TGI (HL-60(TB) leukemia) was 41.2 µM, the TGI (HOP-18 NSCLC) was over 100 µM and the TGI (HOP-62 NSCLC) was over 91.9 µM. It also gave a TGI (HOP-92 NSCLC) of 57.7 µM, a TGI (HT29 colon) of over 100 µM and a TGI (IGROV1 ovarian) of over 86.9 µM. For the same compound, the TGI (K-562 leukemia) was over 100 µM, the TGI (KM12 colon) was over 100 µM and the TGI (KM20L2 colon) was over 95.1 µM. It also gave a TGI (LOX IMVI melanoma) of over 93.6 µM, a TGI (M19-MEL melanoma) of over 100 µM and a TGI (MALME-3M melanoma) of over 100 µM. For the same compound, the TGI (MCF7 breast) was over 100 µM, the TGI (MOLT-4 leukemia) was 77.5 µM and the TGI (NCI-H23 lung) was 75.7 µM. The TGI (NCI-H460 lung) was over 88 µM, the TGI (NCI-H522 lung) was over 81.5 µM and the TGI (NCI/ADR-RES ovarian) was over 100 µM. The TGI (OVCAR-3 ovarian) was over 82.1 µM, the TGI (OVCAR-4 ovarian) was over 84.9 µM and the TGI (OVCAR-5 ovarian) was over 86.2 µM. The TGI (OVCAR-8 ovarian) was over 90.1 µM, the TGI (P388 leukemia) was over 100 µM and the TGI (P388/ADR leukemia) was over 100 µM. The TGI (RXF 393 renal) was over 74.2 µM, the TGI (SF-268 CNS) was 98.8 µM and the TGI (SF-295 CNS) was over 86.1 µM. It also gave a TGI (SF-539 CNS) of 69.8 µM, a TGI (SK-MEL-2 melanoma) of 85.3 µM and a TGI (SK-MEL-28 melanoma) of over 100 µM. For the same compound, the TGI (SK-MEL-5 melanoma) was over 71.3 µM, the TGI (SK-OV-3 ovarian) was over 100 µM and the TGI (SN12C renal) was over 80.4 µM. It also gave a TGI (SN12K1 renal) of over 79.8 µM, a TGI (SNB-19 CNS) of over 100 µM and a TGI (SNB-75 CNS) of over 74.9 µM. For the same compound, the TGI (SNB-78 CNS) was over 100 µM, the TGI (SW-620 colon) was over 100 µM and the TGI (U251 CNS) was 51.8 µM. The TGI (UACC-257 melanoma) was 83.6 µM, the TGI (UACC-62 melanoma) was over 62.9 µM and the TGI (UO-31 renal) was 65.2 µM. The TGI (XF 498 CNS) was 79.8 µM.
`S=P1(Sc2ccccc2)Oc2ccc3ccccc3c2-c2c(ccc3ccccc23)O1` was tested, and the TGI (A498 renal) was over 100 µM, the TGI (A549 NSCLC) was over 100 µM and the TGI (CAKI-1 renal) was over 100 µM. It also gave a TGI (CCRF-CEM leukemia) of over 100 µM, a TGI (COLO 205 colon) of over 100 µM and a TGI (DLD-1 colon) of over 100 µM. For the same compound, the TGI (DMS 114 small cell lung) was over 100 µM, the TGI (DMS 273 small cell lung) was over 100 µM and the TGI (EKVX NSCLC) was over 100 µM. For the same compound, the TGI (HCC-2998 colon) was over 100 µM, the TGI (HCT-116 colon) was over 100 µM and the TGI (HCT-15 colon) was over 100 µM. For the same compound, the TGI (HL-60(TB) leukemia) was over 100 µM, the TGI (HOP-18 NSCLC) was over 100 µM and the TGI (HOP-62 NSCLC) was over 100 µM. The TGI (HOP-92 NSCLC) was over 100 µM, the TGI (HT29 colon) was over 100 µM and the TGI (IGROV1 ovarian) was over 100 µM. The TGI (K-562 leukemia) was over 100 µM, the TGI (KM12 colon) was over 100 µM and the TGI (KM20L2 colon) was over 100 µM. The TGI (LOX IMVI melanoma) was over 100 µM, the TGI (M19-MEL melanoma) was over 100 µM and the TGI (MALME-3M melanoma) was over 100 µM. It also gave a TGI (MCF7 breast) of over 100 µM, a TGI (MOLT-4 leukemia) of over 100 µM and a TGI (NCI-H226 lung) of over 100 µM. It also gave a TGI (NCI-H23 lung) of over 100 µM, a TGI (NCI-H460 lung) of over 100 µM and a TGI (NCI-H522 lung) of over 100 µM. For the same compound, the TGI (NCI/ADR-RES ovarian) was over 100 µM, the TGI (OVCAR-3 ovarian) was over 100 µM and the TGI (OVCAR-4 ovarian) was over 100 µM. It also gave a TGI (OVCAR-5 ovarian) of over 100 µM, a TGI (OVCAR-8 ovarian) of over 100 µM and a TGI (P388 leukemia) of over 100 µM. For the same compound, the TGI (P388/ADR leukemia) was over 100 µM, the TGI (RPMI-8226 leukemia) was over 100 µM and the TGI (RXF 393 renal) was over 100 µM. It also gave a TGI (SF-268 CNS) of over 100 µM, a TGI (SF-295 CNS) of over 100 µM and a TGI (SF-539 CNS) of over 100 µM. It also gave a TGI (SK-MEL-2 melanoma) of over 100 µM, a TGI (SK-MEL-28 melanoma) of over 100 µM and a TGI (SK-MEL-5 melanoma) of over 100 µM. It also gave a TGI (SK-OV-3 ovarian) of over 100 µM, a TGI (SN12C renal) of over 100 µM and a TGI (SN12K1 renal) of over 100 µM. For the same compound, the TGI (SNB-19 CNS) was over 100 µM, the TGI (SNB-75 CNS) was over 100 µM and the TGI (SNB-78 CNS) was over 100 µM. The TGI (SW-620 colon) was over 100 µM, the TGI (U251 CNS) was over 100 µM and the TGI (UACC-257 melanoma) was over 100 µM. For the same compound, the TGI (UACC-62 melanoma) was over 100 µM, the TGI (UO-31 renal) was over 100 µM and the TGI (XF 498 CNS) was over 100 µM.
